The text below walks through data of patent publication US20240116985A1, “STAPLED PEPTIDES AND METHODS THEREOF” (priority 2020, published 2024).

Like-named read-outs stand apart in the source and are kept apart here.

Assay [1] deals with T1, full-length beta-Catenin (Uniprot ID P35222) (Homo sapiens, UniProt P35222).
T1 construct: 10 nM full-length beta-Catenin (Uniprot ID P35222)
T1 sequence (P35222 1-781): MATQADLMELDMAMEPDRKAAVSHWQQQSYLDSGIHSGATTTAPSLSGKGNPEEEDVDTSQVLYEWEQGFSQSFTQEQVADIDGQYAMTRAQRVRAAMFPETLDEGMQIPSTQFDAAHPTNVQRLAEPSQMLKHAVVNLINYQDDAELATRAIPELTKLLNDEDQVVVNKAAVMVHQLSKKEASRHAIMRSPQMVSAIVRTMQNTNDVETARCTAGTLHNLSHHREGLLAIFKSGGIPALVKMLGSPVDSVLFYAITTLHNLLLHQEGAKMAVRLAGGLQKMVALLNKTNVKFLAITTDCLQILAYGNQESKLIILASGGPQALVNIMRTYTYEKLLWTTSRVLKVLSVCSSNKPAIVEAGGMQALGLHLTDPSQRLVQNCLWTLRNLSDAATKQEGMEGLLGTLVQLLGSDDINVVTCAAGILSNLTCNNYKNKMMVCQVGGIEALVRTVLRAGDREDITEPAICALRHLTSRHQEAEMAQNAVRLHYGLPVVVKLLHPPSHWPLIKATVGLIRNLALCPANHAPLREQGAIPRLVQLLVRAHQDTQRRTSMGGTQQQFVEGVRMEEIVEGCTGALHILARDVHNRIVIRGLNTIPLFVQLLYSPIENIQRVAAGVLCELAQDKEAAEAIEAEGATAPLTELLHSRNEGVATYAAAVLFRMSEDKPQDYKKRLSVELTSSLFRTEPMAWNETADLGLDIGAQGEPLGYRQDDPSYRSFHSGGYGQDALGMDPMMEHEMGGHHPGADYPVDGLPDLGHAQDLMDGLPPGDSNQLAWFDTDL
As to the kind of experiment: Fluorescence polarization IC50 (beta-catenin / 5FAM-TCF4 10-53 competition). Type of assay: binding. The note with it: fluorescence polarization.

The target of assay [2] is T2, beta-catenin/TCF4 engagement (Homo sapiens, UniProt P35222).
T2 construct: expressed in transfected cells; host or cells: HEK293
T2 sequence (P35222 1-781): T1 sequence (P35222 1-781)
As to the kind of experiment: Nano-BRET target engagement assay (B-cat-Halo & TCF4-Luc in HEK293 cells). It is filed as cell-based. A general note: Bioluminescence resonance energy transfer reports proximity on the nanometre scale.

Regarding `CCCC[C@@H]1NC(=O)[C@H](Cc2cccc(C(=O)O)c2)NC(=O)[C@H](CC(=O)O)NC(=O)C2(CCCC=CCCCOC(=O)N3CC[C@@](C(=O)N[C@@H](Cc4ccsc4)C(=O)N[C@@H](Cc4csc5ccccc45)C(=O)N[C@@H](C)C(N)=O)(C3)NC(=O)[C@H](CC(C)C)NC(=O)[C@H](Cc3ccccc3)NC(=O)[C@H](C)NC1=O)CCCC=CC[C@]1(CCCN1C(C)=O)C(=O)N[C@@H](CC(=O)O)C(=O)N[C@@H](CC(C)(C)C)C(=O)N2` (stereo partly drawn) [I-1919, Ac-PL3-Asp-Npg-B5-Asp-3COOHF-nLeu-Ala-Phe-Leu-PyrS2-3Thi-BztA-Ala-NH2], the values for the IC50 in assay [1] (read-out: beta-Catenin FP IC50) and in assay [2] (read-out: NanoBRET Abs IC50) were 33 nM and 4.7 µM, respectively.
The matching figures for `CC(=O)N1CCC[C@]12CC=CCCCC1(CCCC=CCCCOC(=O)N3CC[C@@](C(=O)N[C@@H](Cc4cccc(C(N)=O)c4)C(=O)N[C@@H](Cc4csc5ccccc45)C(=O)N[C@@H](CCO)C(N)=O)(C3)NC(=O)[C@H](CC(N)=O)NC(=O)[C@H](Cc3ccccc3)NC(=O)[C@H](C)NC(=O)[C@H](CCCCNC(C)C)NC(=O)[C@H](CCC(N)=O)NC(=O)[C@H](CC(=O)O)NC1=O)NC(=O)[C@H](CC1CCCCC1)NC(=O)[C@H](CC(N)=O)NC2=O` (stereo partly drawn) [I-1929, Ac-PL3-Asn-Cha-B5-Asp-Gln-iPrLys-Ala-Phe-Asn-PyrS2-3cbmf-BztA-Hse-NH2]: 74 nM and more than 20 µM.
As to `CC(=O)N1CCC[C@]12CC=CCCCC1(CCCC=CCCCOC(=O)N3CC[C@@](C(=O)N[C@@H](Cc4ccsc4)C(=O)N[C@@H](Cc4csc5ccccc45)C(=O)N[C@@H](CCC(N)=O)C(N)=O)(C3)NC(=O)[C@H](CCC(=O)N3CCN(CC(F)(F)F)CC3)NC(=O)[C@H](Cc3ccccc3)NC(=O)[C@H](C)NC(=O)[C@H](C)NC(=O)[C@H](CN(CC(=O)O)CC(F)(F)F)NC(=O)[C@H](CC(=O)O)NC1=O)NC(=O)[C@H](CC(C)(C)C)NC(=O)[C@H](CC(=O)O)NC2=O` (stereo partly drawn) [I-1935, Ac-PL3-Asp-Npg-B5-Asp-TfeGA-Ala-Ala-Phe-[TfePpz]GlnR-PyrS2-3Thi-BztA-Gln-NH2], the figures for the IC50 in assay [1] (read-out: beta-Catenin FP IC50) and in assay [2] (read-out: NanoBRET Abs IC50) were 9 nM and 7.1 µM, respectively.
As for `CC(=O)N1CCC[C@]12CC=CCCCC1(CCCC=CCCCOC(=O)N3CC[C@@](C(=O)N[C@@H](Cc4ccsc4)C(=O)N[C@@H](Cc4csc5ccccc45)C(=O)N[C@@H](CCC(N)=O)C(N)=O)(C3)NC(=O)[C@H](CCC(=O)N3CCN(CCCN(C)C)CC3)NC(=O)[C@H](Cc3ccccc3)NC(=O)[C@H](C)NC(=O)[C@H](C)NC(=O)[C@H](CN(CC(=O)O)CC(F)(F)F)NC(=O)[C@H](CC(=O)O)NC1=O)NC(=O)[C@H](CC(C)(C)C)NC(=O)[C@H](CC(=O)O)NC2=O` (stereo partly drawn) [I-1936, Ac-PL3-Asp-Npg-B5-Asp-TfeGA-Ala-Ala-Phe-[Me2NPrPip]GlnR-PyrS2-3Thi-BztA-Gln-NH2], the IC50 (in general, the midpoint of a concentration-inhibition curve) in assay [1] (read-out: beta-Catenin FP IC50) is 10 nM; in assay [2] (read-out: NanoBRET Abs IC50), 15.7 µM.
For the compound `CC(=O)N1CCC[C@]12CC=CCCCC1(CCCC=CCCCOC(=O)N3CC[C@@](C(=O)N[C@@H](Cc4ccsc4)C(=O)N[C@@H](Cc4csc5ccccc45)C(=O)N[C@@H](CCC(N)=O)C(N)=O)(C3)NC(=O)[C@H](CCC(=O)N3CCN(c4ccncc4)CC3)NC(=O)[C@H](Cc3ccccc3)NC(=O)[C@H](C)NC(=O)[C@H](C)NC(=O)[C@H](CN(CC(=O)O)CC(F)(F)F)NC(=O)[C@H](CC(=O)O)NC1=O)NC(=O)[C@H](CC(C)(C)C)NC(=O)[C@H](CC(=O)O)NC2=O` (stereo partly drawn) [I-1938, Ac-PL3-Asp-Npg-B5-Asp-TfeGA-Ala-Ala-Phe-[4PyPip]GlnR-PyrS2-3Thi-BztA-Gln-NH2], the IC50 in assay [1] (beta-Catenin FP IC50 (nM)) turned out to be 8 nM; in assay [2] (NanoBRET Abs IC50 (uM)) it was 30 µM.
`CC(=O)N1CCC[C@]12CC=CCCCC1(CCCC=CCCCOC(=O)N3CC[C@@](C(=O)N[C@@H](Cc4ccsc4)C(=O)N[C@@H](Cc4csc5ccccc45)C(=O)N[C@@H](CCC(N)=O)C(N)=O)(C3)NC(=O)[C@H](CCC(=O)N3CC[C@@H](N(C)C)C3)NC(=O)[C@H](Cc3ccccc3)NC(=O)[C@H](C)NC(=O)[C@H](C)NC(=O)[C@H](CN(CC(=O)O)CC(F)(F)F)NC(=O)[C@H](CC(=O)O)NC1=O)NC(=O)[C@H](CC(C)(C)C)NC(=O)[C@H](CC(=O)O)NC2=O` (stereo partly drawn) [I-1939, Ac-PL3-Asp-Npg-B5-Asp-TfeGA-Ala-Ala-Phe-[RDMAPyr]GlnR-PyrS2-3Thi-BztA-Gln-NH2]: the IC50 in assay [1] (read-out: beta-Catenin FP IC50) came to 10 nM; in assay [2] (read-out: NanoBRET Abs IC50) it was 20.7 µM.
As for `CC(=O)N1CCC[C@]12CC=CCCCC1(CCCC=CCCCOC(=O)N3CC[C@@](C(=O)N[C@@H](Cc4ccsc4)C(=O)N[C@@H](Cc4csc5ccccc45)C(=O)N[C@@H](CCC(N)=O)C(N)=O)(C3)NC(=O)[C@H](CCC(=O)N3CCC(N4CCCCC4)CC3)NC(=O)[C@H](Cc3ccccc3)NC(=O)[C@H](C)NC(=O)[C@H](C)NC(=O)[C@H](CN(CC(=O)O)CC(F)(F)F)NC(=O)[C@H](CC(=O)O)NC1=O)NC(=O)[C@H](CC(C)(C)C)NC(=O)[C@H](CC(=O)O)NC2=O` (stereo partly drawn) [I-1940, Ac-PL3-Asp-Npg-B5-Asp-TfeGA-Ala-Ala-Phe-[4Pippip]GlnR-PyrS2-3Thi-BztA-Gln-NH2], the figures for the IC50 in assay [1] (read-out: beta-Catenin FP IC50) and in assay [2] (read-out: NanoBRET Abs IC50) were 6 nM and 15.4 µM, respectively.
The corresponding values for `CC(=O)N1CCC[C@]12CC=CCCCC1(CCCC=CCCCOC(=O)N3CC[C@@](C(=O)N[C@@H](Cc4ccsc4)C(=O)N[C@@H](Cc4csc5ccccc45)C(=O)N[C@@H](CCC(N)=O)C(N)=O)(C3)NC(=O)[C@H](CCC(=O)N3CCNCC3)NC(=O)[C@H](Cc3ccccc3)NC(=O)[C@H](C)NC(=O)[C@H](C)NC(=O)[C@H](CN(CC(=O)O)CC(F)(F)F)NC(=O)[C@H](CC(=O)O)NC1=O)NC(=O)[C@H](CC(C)(C)C)NC(=O)[C@H](CC(=O)O)NC2=O` (stereo partly drawn) [I-1941, Ac-PL3-Asp-Npg-B5-Asp-TfeGA-Ala-Ala-Phe-[Ppz]GlnR-PyrS2-3Thi-BztA-Gln-NH2] are 6 nM and 12.9 µM.
The matching figures for `CC(=O)N1CCC[C@]12CC=CCCCC1(CCCC=CCCCOC(=O)N3CC[C@@](C(=O)N[C@@H](Cc4ccsc4)C(=O)N[C@@H](Cc4csc5ccccc45)C(=O)N[C@@H](CCC(N)=O)C(N)=O)(C3)NC(=O)[C@H](CCC(=O)NCc3ccccc3)NC(=O)[C@H](Cc3ccccc3)NC(=O)[C@H](C)NC(=O)[C@H](C)NC(=O)[C@H](CN(CC(=O)O)CC(F)(F)F)NC(=O)[C@H](CC(=O)O)NC1=O)NC(=O)[C@H](CC(C)(C)C)NC(=O)[C@H](CC(=O)O)NC2=O` (stereo partly drawn) [I-1942, Ac-PL3-Asp-Npg-B5-Asp-TfeGA-Ala-Ala-Phe-[NHBn]GlnR-PyrS2-3Thi-BztA-Gln-NH2]: 11 nM and 7.9 µM.
The matching figures for `CC(=O)N1CCC[C@]12CC=CCCCC1(CCCC=CCCCOC(=O)N3CC[C@@](C(=O)N[C@@H](Cc4ccsc4)C(=O)N[C@@H](Cc4csc5ccccc45)C(=O)N[C@@H](CCC(N)=O)C(N)=O)(C3)NC(=O)[C@H](CCC(=O)N3CCOCC3)NC(=O)[C@H](Cc3ccccc3)NC(=O)[C@H](C)NC(=O)[C@H](C)NC(=O)[C@H](CN(CC(=O)O)CC(F)(F)F)NC(=O)[C@H](CC(=O)O)NC1=O)NC(=O)[C@H](CC(C)(C)C)NC(=O)[C@H](CC(=O)O)NC2=O` (stereo partly drawn) [I-1943, Ac-PL3-Asp-Npg-B5-Asp-TfeGA-Ala-Ala-Phe-[Morph]GlnR-PyrS2-3Thi-BztA-Gln-NH2]: 7 nM and 3.8 µM.
